Test results reported in patent US20050064001A1, “Multi-layer adjuvants for controlled delivery of agro-materials into plant tissues” (priority 2001, published 2005).
One block for each compound: values may come before it.

Assays:
[1] = system: Citrus Lemon Urika chlorotic foliage; assay: Biological activity of iron sprayed on chlorotic foliage (leaf color, chlorophyll, iron content, leaf burns); format: in vivo; conditions: for Leaf Color: score 1 yellow, 2 light green, 3 vigorously green leaves
Excerpt: Effect of Ferri-Vant (Multi-Layer Adjuvant Coated Fe2(SO4)3 on the Biological Activity of Iron Sprayed on Citrus Lemon Urika Chlorotic Foliage
The Ferri-Vant effect was compared with the untreated control, Fe2(SO4)3 sprayed alone and Fe2(SO4)3 treated with the surfactant Silwet^R L-77. Ten leaves from five trees sprayed for each treatment were sampled and scored for green color. The scoring was based as follows: 1—yellow leaves; 2—light green leaves; 3—vigorously green leaves. Chlorophyll level was determined spectrophotometrically as reported by Moran [Moran, R., Plant Physiol. 69:1376-1381 […]]. Iron content was obtained using the ICP system and leaf burns were visually detected.

[2] = system: Citrus Grandis isolated cuticles; assay: Penetration of phosphorous (32P) through isolated cuticles; format: in vitro ADME; conditions: 60% relative humidity, 25° C.
Method: Effect of MKP-Nutri-Vant^R I on the Percent of Penetration of Phosphorous (^32P) Through Citrus Grandis Isolated Cuticles
(§1) The experiment was carried out for three weeks in a controlled shaking chamber set at 60% relative humidity and 25° C. The values are calculated from the transformation formula −ln(1−Mt/Mo). Mt is the accumulation of radioactivity penetrated in each time period tested; Mo is the total radioactivity applied to the isolated cuticle, based on Schönherr and Riederer [Schonherr, J. and M. Riederer, Plant Cell Environ. […] The values are the means of at least 20 replicates ±S.E.

Citrus Grandis leaves = assay: Penetration of phosphorous (32P) into leaves; format: in vitro ADME; conditions: 60% relative humidity, 25° C.
Method: as §1
Effect of MKP-Nutri-Vant II on the Percent of Penetration of Phosphorous (^32P) into Citrus Grandis Leaves
The experiment was carried out for two weeks in a controlled shaking chamber set at 60% relative humidity and 25° C. All the details are similar to those in the previous table.

Iron Content at day4 ([1]; day 4, leaves, ICP system): 0.61 mg/g
Compound: O=S(=O)([O-])[O-].O=S(=O)([O-])[O-].O=S(=O)([O-])[O-].[Fe+3].[Fe+3] [Fe2(SO4)3 alone, Fe2(SO4)3]
Leaf Color ([1]; day 0): 1
Leaf Color ([1]; day 2): 1
Leaf Color ([1]; day 4): 1.3 ± 0.4
Chlorophyll level at day 4, Chl. A ([1]; day 4, spectrophotometric): 2.8 mg/sq. cm leaf area
Chlorophyll level at day 4, Chl. B ([1]; day 4, spectrophotometric): 1.2 mg/sq. cm leaf area
Leaf Color ([1]; day 10): 1.2 ± 0.4

Compound: O=P([O-])(O)O.[K+] [MK^32P alone, Monopotassium phosphate]
% Penetration of 32P ([2]; 0 hours, mean of at least 20 replicates ±S.E.): 0%
% Penetration of 32P ([2]; 24 hours, mean ±S.E.): 2.6 ± 0.8%
% Penetration of 32P ([2]; 48 hours, mean ±S.E.): 3.4 ± 1.1%
% Penetration of 32P ([2]; 96 hours, mean ±S.E.): 5.7 ± 1.4%
% Penetration of 32P ([2]; 168 hours, mean ±S.E.): 6.3 ± 1.9%
% Penetration of 32P ([2]; 336 hours, mean ±S.E.): 7.5 ± 1.6%
% Penetration of 32P ([2]; 504 hours, mean ±S.E.): 7.9 ± 1.9%
% Penetration of 32P (Citrus Grandis leaves; 0 hours): 0%
% Penetration of 32P (Citrus Grandis leaves; 48 hours): 3.1 ± 0.8%
% Penetration of 32P (Citrus Grandis leaves; 96 hours): 4.7 ± 0.6%
% Penetration of 32P (Citrus Grandis leaves; 168 hours): 5.5 ± 0.6%
% Penetration of 32P (Citrus Grandis leaves; 336 hours): 6.4 ± 0.4%
